Results: ChEMBL document CHEMBL6092184, “Talauromides A-G, Nitrogen-Containing Heptacyclic Oligophenalenone Dimers from the Soil Fungus Talaromyces stipitatus BMC-16” (2024)
The source made the active and inactive calls. The rule behind the calls is not given here.

Legend:
HEK293T = assay: Inhibition of Wnt/beta-catenin signaling pathway in HEK293T cells assessed as downregulation of BIO-induced nonphosphorylated beta-catenin level at 20 uM incubated for 12 hrs by immunoblotting analysis; format: cell-based; settings: Homo sapiens
[1] = In-vivo inhibition of BIO-induced Wnt/beta-catenin signaling pathway in zebrafish embryo assessed as reversal of eyeless phenotype to small and normal like eyes at 20 uM measured at 48 hrs post fertilization; format: functional; settings: Danio rerio

| Structure (SMILES) | inhibition (HEK293T) | inhibition in vivo at 20 µM [1] |
| --- | --- | --- |
| Cc1cc(O)c2c3c1C(=O)[C@@H]1C4=C(C(=O)c5cn(CCCC(=O)O)c(=O)c6c(O)cc(C)c4c56)[C@@]3(COC2=O)[C@H]1O | Active | 96.6% |
| CC(=O)O[C@H]1[C@@H]2C(=O)c3c(C)cc(O)c4c3[C@@]1(COC4=O)c1c(O)c3c4c(c(O)cc(C)c4c12)C(=O)OC3 | Active | 100% |
| CC(=O)O[C@H]1[C@@H]2C(=O)c3c(C)cc(O)c4c3[C@@]1(COC4=O)c1c(O)c3c4c(c(O)cc(C)c4c12)C(=O)O3 | Active | 80% |
